The source of these data is PubChem BioAssay AID1963863 (Molecular Pharmacology Branch, DTP, NCI, 2024).

The term IC50 denotes the point on the concentration scale where inhibition reaches its midpoint. The viability, T/C is the ratio of treated to control.

The test system of this experiment is 931267-113-T-J1-PDC KRAS spheroid with HUVEC/MSC, viability. Kind of experiment: Anticancer human tumor 931267-113-T-J1-PDC patient-derived colon adenocarcinoma cell line growth inhibition [KRAS2]. To be noted: for viability, T/C: stronger effect = lower value. The source says:
Multicellular complex tumor spheroid response to RAS pathway inhibitors in combination with a targeted agents in patient-derived cell lines with oncogenic KRAS variants from multiple cancer types
A high-throughput screen of multi-cell type tumor spheroids was designed to identify active combinations of targeted small molecules and KRAS pathway inhibitors. Complex spheroids include a stromal component modeled by human endothelial cells (HUVEC) and fibroblasts modeled by human mesenchymal stem cells (MSCs). The concentration ranges selected for each drug and investigational agent were based upon clinically achievable concentrations if the clinical Cmax of the agent was known.
Compounds. The drugs and investigational agents: BI-3406 (NSC825286), BAY-293 (NSC824723), batoprotafib (TNO155; NSC825523), sotorasib (AMG 510; NSC818433), MRTX1257 (NSC819558), elimusertib (BAY 1895344; NSC800525), molibresib (GSK525762; NSC774829), temuterkib (LY3214996; NSC803410), venetoclax (NSC766270), alisertib (NSC759677), olaparib (NSC753686), talazoparib (NSC767125), erdafitinib (NSC781556), ipatasertib (NSC767898), cabozantinib (NSC761068), nintedanib (NSC756659), abemaciclib (NSC768073), docetaxel (NSC628503), trametinib (NSC758246), and sapanisertib (NSC764658) were obtained from the National Cancer Institute (NCI) Developmental Therapeutics Program Chemical Repository. The FDA-approved anticancer drug set is available from the Developmental Therapeutics Program. […] The stock solutions were prepared in dimethyl sulfoxide (DMSO, Sigma-Aldrich, St. Louis, MO, cat. D2650) at 800-fold the tested concentration and stored at -70 degrees C prior to their use. All drugs and investigational agents were tested over a range starting from a high concentration at or near the clinical Cmax and decreasing in half-log increments. If the clinical Cmax for an agent had not been determined, the highest concentration tested was 10 microM.
Cell Culture. All cells were maintained in an incubator at 37 degrees C and 5% CO2 with 95% humidity. The PDC lines were cultured according to standard operating procedures established by the NCI PDMR (https://pdmr.cancer.gov/sops/default.htm). Briefly, all PDCs were thawed and cultured in Matrigel-coated flasks prepared with a working solution of 1X Ham's F-12 nutrient mix, without supplementation (Invitrogen, Waltham, MA, cat. 11765054), 100 U/mL penicillin-streptomycin (Invitrogen, cat. 15140122), and 2.5% Matrigel (Corning Inc., Corning, NY, cat. 354248) for the first three passages. All PDCs were cultured in complete DMEM/F-12 media containing advanced DMEM/F-12 (Invitrogen, cat. 12634028), 4.9% defined fetal bovine serum, heat inactivated (HyClone Laboratories Inc., Logan, UT, cat. SH30070.03HI), 389 ng/mL hydrocortisone (Sigma-Aldrich, cat. H4001), 9.7 ng/mL human EGF recombinant protein (Invitrogen, cat. PHG0313), 23.4 microg/mL adenine (Sigma-Aldrich, cat. A2786), 97.3 U/mL penicillin-streptomycin (Invitrogen, cat. 15140122), 1.9 mM L-glutamine (Invitrogen, cat. 25030081), and 9.7 microM Y-27632 dihydrochloride (Tocris Bioscience, Bristol, United Kingdom, cat. 1254). The PDCs were cultured in complete DMEM/F12 media without 9.7 microM Y-27632 dihydrochloride for at least two passages prior to the screen. The established cell line HOP-62 was cultured in RPMI 1640 medium, HEPES (Invitrogen, cat. 22400105) with 10% defined fetal bovine serum (HyClone Laboratories Inc., cat. SH30070.03) and 2 mM L-glutamine (Invitrogen, cat. 25030081). The pooled donor HUVEC were cultured in endothelial cell growth medium 2 (PromoCell, Heidelberg, Germany, cat. C-22011) and the hMSC were cultured in mesenchymal stem cell growth medium 2 (PromoCell, cat. C-28009). For all experiments, HUVEC and hMSC were used at passages </=5, while the malignant cell lines were used at passages </=15. […]

[1] abbreviates: compound alone, run of 08/26/2021.
The mark [2] stands for this setting: compound alone, run of 09/02/2021.
The mark [3] stands for this setting: curve of first compound, second compound 0.1 µM.
The mark [4] stands for this setting: curve of first compound, second compound 0.316 µM.
[5] abbreviates: curve of first compound, second compound 1 µM.
[6] abbreviates: curve of first compound, second compound 3.16 µM.
Where [7] appears, read: curve of first compound, second compound 10 µM.
The mark [8] stands for this setting: second compound 0.1 µM, first compound 0.01 µM.
The mark [9] stands for this setting: second compound 0.1 µM, first compound 0.0316 µM.
Where [10] appears, read: second compound 0.1 µM, first compound 0.1 µM.
Setting [11] is: second compound 0.316 µM, first compound 0.01 µM.
Where [12] appears, read: second compound 0.316 µM, first compound 0.0316 µM.
[13] abbreviates: second compound 0.316 µM, first compound 0.1 µM.
Setting [14] is: second compound 1 µM, first compound 0.01 µM.
Where [15] appears, read: second compound 1 µM, first compound 0.0316 µM.
The mark [16] stands for this setting: second compound 1 µM, first compound 0.1 µM.
The mark [17] stands for this setting: second compound 3.16 µM, first compound 0.01 µM.
[18] abbreviates: second compound 3.16 µM, first compound 0.0316 µM.
Setting [19] is: second compound 3.16 µM, first compound 0.1 µM.
[20] abbreviates: second compound 10 µM, first compound 0.01 µM.
The mark [21] stands for this setting: second compound 10 µM, first compound 0.0316 µM.
[22] abbreviates: second compound 10 µM, first compound 0.1 µM.

Molecules are shown by their SMILES. Where “and” joins values, the source holds several entries; their conditions need not be identical. Equal entries are not always repeated.
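Note: compound exposure lasted 7 days before the readout.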

Regarding `C=CC(=O)N1CCN(c2nc(OCC3CCCN3C)nc3c2CCN(c2cccc4cccc(C)c24)C3)CC1CC#N` (stereo unspecified), the IC50 under setting [1] was 1.65 µM [middle of 5 runs] and the IC50 under setting [2] was 1.62 µM [middle of 5 runs].
As to `CNCc1ccccc1-c1csc(C(C)Nc2nc(C)nc3cc(OC)c(OC)cc23)c1` (stereo unspecified), the viability, T/C (compound 10 µM) is 0.16% [middle of 14 runs]. In addition, the IC50 was 1.13 µM [middle of 5 runs] under setting [1] and 952 nM [middle of 5 runs] under setting [2].
Turning to `COc1cc(OC)cc(N(CCNC(C)C)c2ccc3ncc(-c4cnn(C)c4)nc3c2)c1`, the viability, T/C was 101% [middle of 5 runs] (compound 0.1 µM), 107% [middle of 5 runs] (compound 0.316 µM), 107% [middle of 5 runs] (compound 1 µM) and 0.45% [middle of 4 runs] (compound 10 µM). In addition, the concentration for half-maximal inhibition (IC50) (curve of compound) is 4.66 µM [middle of 4 runs].
For `COc1cc2nc(C)nc(NC(C)c3cc(N)cc(C(F)(F)F)c3)c2cc1OC1CCOC1` (stereo unspecified), the IC50 reads like this: under setting [1], 4.74 µM [middle of 4 runs]; under setting [2], 4.4 µM [middle of 6 runs].
Consider `COc1cc2nccc(Oc3ccc(NC(=O)C4(C(=O)Nc5ccc(F)cc5)CC4)cc3)c2cc1OC`, for which the viability, T/C reads like this: (compound 0.316 µM) 96.5% [middle of 5 runs]; (compound 1 µM) 105% [middle of 5 runs]; (compound 3.16 µM) 60.4% [middle of 5 runs]. Also, the half-inhibitory concentration (IC50) (curve of compound) was > 10 µM and 6.16 µM and 10 µM.
`CC(=O)OC12COC1CC(O)C1(C)C(=O)C(O)C3=C(C)C(OC(=O)C(O)C(NC(=O)OC(C)(C)C)c4ccccc4)CC(O)(C(OC(=O)c4ccccc4)C21)C3(C)C` (stereo unspecified) + C=CC(=O)N1CCN(c2nc(=O)n(-c3c(C)ccnc3C(C)C)c3nc(-c4c(O)cccc4F)c(F)cc23)C(C)C1: the IC50 under setting [3] was greater than 3.16 µM; the IC50 under setting [4] is greater than 3.16 µM; the 50% inhibitory concentration (IC50) under setting [5] was greater than 3.16 µM; the 50% inhibitory concentration (IC50) under setting [6] was greater than 3.16 µM; the IC50 under setting [7] was greater than 3.16 µM. The viability, T/C was 93.1% under setting [8]; 96.3% under setting [9]; 83.3% under setting [10]; 82.9% (second compound 0.1 µM, first compound 0.316 µM); 84.2% (second compound 0.1 µM, first compound 1 µM); 102% (second compound 0.1 µM, first compound 3.16 µM). Also, the viability, T/C under setting [11] is 94.4%; the viability, T/C under setting [12] was 116%; the viability, T/C under setting [13] was 110%; the viability, T/C (second compound 0.316 µM, first compound 0.316 µM) was 77.6%; the viability, T/C (second compound 0.316 µM, first compound 1 µM) was 110%; the viability, T/C (second compound 0.316 µM, first compound 3.16 µM) was 119%. Also, the viability, T/C was 102% under setting [14]; 106% under setting [15]; 103% under setting [16]; 81% (second compound 1 µM, first compound 0.316 µM); 117% (second compound 1 µM, first compound 1 µM); 90.6% (second compound 1 µM, first compound 3.16 µM). The viability, T/C is 103% under setting [17]; 93.9% under setting [18]; 91.1% under setting [19]; 96.8% (second compound 3.16 µM, first compound 0.316 µM); 99.6% (second compound 3.16 µM, first compound 1 µM); 113% (second compound 3.16 µM, first compound 3.16 µM). The viability, T/C was 87.1% under setting [20]; 116% under setting [21]; 98.7% under setting [22]; 110% (second compound 10 µM, first compound 0.316 µM); 116% (second compound 10 µM, first compound 1 µM); 113% (second compound 10 µM, first compound 3.16 µM).
In the case of `CN(C)C/C=C/C(=O)Nc1cc2c(Nc3ccc(F)c(Cl)c3)ncnc2cc1O[C@H]1CCOC1` + C=CC(=O)N1CCN(c2nc(=O)n(-c3c(C)ccnc3C(C)C)c3nc(-c4c(O)cccc4F)c(F)cc23)C(C)C1, the IC50 was greater than 0.1 µM under setting [3]; greater than 0.1 µM under setting [4]; greater than 0.1 µM under setting [5]; greater than 0.1 µM under setting [6]; greater than 0.1 µM under setting [7]. The viability, T/C (second compound 0.1 µM, first compound 0.000316 µM) is 103%; the viability, T/C (second compound 0.1 µM, first compound 0.001 µM) is 91.6%; the viability, T/C (second compound 0.1 µM, first compound 0.00316 µM) is 76.1%; the viability, T/C under setting [8] was 83.5%; the viability, T/C under setting [9] is 115%; the viability, T/C under setting [10] was 117%. In addition, the viability, T/C is, setting by setting: (second compound 0.316 µM, first compound 0.000316 µM) 97.5%; (second compound 0.316 µM, first compound 0.001 µM) 105%; (second compound 0.316 µM, first compound 0.00316 µM) 95.1%; under setting [11], 96.1%; under setting [12], 117%; under setting [13], 98.6%. Moreover, the viability, T/C (second compound 1 µM, first compound 0.000316 µM) is 110%; the viability, T/C (second compound 1 µM, first compound 0.001 µM) is 121%; the viability, T/C (second compound 1 µM, first compound 0.00316 µM) was 83.7%; the viability, T/C under setting [14] is 90.8%; the viability, T/C under setting [15] was 84.9%; the viability, T/C under setting [16] is 96.5%. For the same molecule, the viability, T/C reads like this: (second compound 3.16 µM, first compound 0.000316 µM) 138%; (second compound 3.16 µM, first compound 0.001 µM) 128%; (second compound 3.16 µM, first compound 0.00316 µM) 117%; under setting [17], 95%; under setting [18], 126%; under setting [19], 105%. The viability, T/C by setting is: (second compound 10 µM, first compound 0.000316 µM) 146%; (second compound 10 µM, first compound 0.001 µM) 138%; (second compound 10 µM, first compound 0.00316 µM) 119%; under setting [20], 99.2%; under setting [21], 110%; under setting [22], 108%.
